Laboratory results from patent US20250154202A1, “CYCLIC EPITOPE TAGS” (BIONTECH SE, priority 2022, published 2025).
Like-named read-outs stand apart in the source and are kept apart here.

Columns and labels:
in vivo = conditions: female, C57BL/6NRj, mouse, iv, 10 mg/kg
Description: (§1) C57BL/6NRj mice were obtained from Janvier Labs, France. In this study, approximately 8-week-old female mice were used.
(§2) Prior to administration into the lateral tail vein, the body weight of the animals was determined to calculate the individual volume of the injecting compound (5 mL/kg body weight). The injection, as well as the blood sampling, were carried out under short anesthesia (0.7 L/min O2, 1.7 L/min N2O, 2% Isoflurane). Blood was sampled from the retro-orbital plexus using microhematocrit capillary (Ø 0.8 mm) and collected into K3EDTA tubes, at the time points indicated in Table 10.
(§3) The plasma was separated by centrifugation (10,000×g; 10 min; 4° C.), aliquoted into microtubes and stored at −80° C.
(§4) 20 μl of each plasma sample was transferred into PCR tubes. 80 μl IS (internal standard)-solution in acetonitrile+1% FA was added for protein precipitation.
(§5) The sample tubes were sealed with pierceable cap mats and vortexed. After homogenization for 5 min in an ultrasonic bath the samples were centrifuged at 3000 rpm at ambient temperature for 15 min. 1 μl supernatant was injected into the instrument for LC-MS/MS analysis. For LC-MS/MS quantification a ExionLC™ UHPLC coupled to a QTRAP® 6500+ mass spectrometer (Sciex) was used in ESI positive mode. Parameters for mass spectrometry were listed in the tables below, Chromatographic separation was achieved on a ACQUITY UPLC BEH C18 column (Waters, 1.7 μm, 2.1×50 mm).
(§6) Compound concentrations in plasma samples were calculated using a 10-point calibration curve in plasma over a concentration range of 1 to 1000 ng/ml. QC samples of 1, 10, 100, 1000 ng/ml were analyzed before and after each dose group. Samples exceeding the upper limit of quantification (1000 ng/ml) were re-analyzed after 10-fold dilution in blank plasma. All calculations were performed in Sciex OS Version 1.7.0.36606 and MS-EXCEL®.
(§7) Pharmacokinetic parameters were calculated for both compounds using the software Kinetica (version 4.4.1, Thermo Scientific) applying a non-compartmental model (NCA).

[1] = mouse, in vivo, iv
Description: as §1, §2, §3, §4, §5, §6, §7

in vitro [2] = conditions: Balb C, mouse, plasma
Description: (§8) Plasma stability measurements were performed by spiking 5 μl of a 1 mM compound stock solution in DMSO into 495 μl of human or mouse Li-heparin plasma (Innovative Research, Cat. No, IPLALIH5OML (human) and IMS-BC-N (Balb C mouse). The spiked plasma was distributed in 50 μl aliquots into capped PCR tubes for incubation at 37° C. At each time point (0, 2, 6, 24 hours*) 3*aliquots were withdrawn from the incubator. Enzymatic reactions were quenched directly after withdrawal by adding 100 μl of acetonitrile/formic acid=99/1 (v/v). Quenched samples were stored at ambient temperature until the end of the incubation period (24 hrs*). After centrifugation, the supernatant was transferred into fresh vials and analyzed by LC-MS/MS in ESI positive mode (Waters ACQUITY UPLC I-Class System (SM-FTN) with Xevo TQD triple quadrupole mass spectrometer with control software Waters MassLynx). […] Values below the limit of quantification (0.1 μM) and outliers of triplicate results were excluded from further calculations. An exponential regression curve was fitted onto the concentration results. Half-life times were calculated from the slope of the regression curve (t1/2=ln(2)/slope).
(§9) For some samples, as indicated below, the incubation time was 6 hours. The 24 hour data was measured in triplicates whereas the 6 hour data was measured in duplicates.

[3] = mouse, plasma
Description: as §8, §9

in vitro [4] = conditions: human, plasma, Conc. (% of T0)
[5] = human, plasma
[6] = mouse, in vivo, iv; for AUC(0-inf): AUC0-inf; for AUC(0-t): AUC0-t
Description: as §1, §2, §3, §4, §5, §6, §7

Ac-PSRLEEELRRRLTE-NH2 [SD14316, Ac-Pro-Ser-Arg-Leu-Glu-Glu-Glu-Leu-Arg-Arg-Arg-Leu-Thr-Glu-NH2]
half-life (in vivo): 4.3 min
AUCextra ([1]; 3 mg/kg): ~1.5^(1) %
Vc ([1]; 3 mg/kg): ~4574^(1) mL/kg
t1/2effective ([1]; 3 mg/kg): ~2.6^(1) min
t1/2initial ([1]; 3 mg/kg): ~1.6^(1) min
t1/2terminal ([1]; 3 mg/kg): ~4.5^(1) min
λinitial ([1]; 3 mg/kg): 0.45^(2) min^−1
λterminal ([1]; 3 mg/kg): 0.15^(2) min^−1
AUCextra ([1]; 10 mg/kg): 0.2%
Vc ([1]; 10 mg/kg): ~4175^(1) mL/kg
t1/2effective ([1]; 10 mg/kg): 2.8 min
t1/2initial ([1]; 10 mg/kg): ~1.3^(1) min
λinitial ([1]; 10 mg/kg): 0.52^(2) min^−1
λterminal ([1]; 10 mg/kg): 0.16 min⁻¹
remaining at 2 h, 10 µM (in vitro [2]): 72.7%
remaining at 6 h, 10 µM (in vitro [2]): 33.8%
half-life [3]: 228 min
remaining at 1 h, 10 µM (in vitro [4]): 89%
remaining at 3 h, 10 µM (in vitro [4]): 78.9%
remaining at 6 h, 10 µM (in vitro [4]): 66.9%
half-life ([5]; Flag (half-life, assay exceeded)): > 360 min
half-life ([5]; Half-life time): 646 min
MRT inf ([6]; 3 mg/kg): 4 min
MRT last ([6]; 3 mg/kg): 3.7 min
Tmax ([6]; 3 mg/kg): 5 min
clearance ([6]; 3 mg/kg): 962 mL/min/kg
AUC(0-inf) ([6]; 3 mg/kg): ~52 ng·h/mL
AUC(0-t) ([6]; 3 mg/kg): 51 ng·h/mL
C0 ([6]; 3 mg/kg): ~656 ng/mL
Cmax ([6]; 3 mg/kg): 306 ng/mL
Vd ([6]; 3 mg/kg, Vss): 3.89 L/kg
Vd ([6]; 3 mg/kg, Vz): ~6.3 L/kg
MRT inf ([6]; 10 mg/kg): 4.1 min
MRT last ([6]; 10 mg/kg): 4 min
Tmax ([6]; 10 mg/kg): 5 min
clearance ([6]; 10 mg/kg): 724 mL/min/kg
AUC(0-inf) ([6]; 10 mg/kg): 230 ng·h/mL
AUC(0-t) ([6]; 10 mg/kg): 230 ng·h/mL
C0 ([6]; 10 mg/kg): ~2400 ng/mL
Cmax ([6]; 10 mg/kg): 1660 ng/mL
Vd ([6]; 10 mg/kg, Vss): 2.95 L/kg
Vd ([6]; 10 mg/kg, Vz): 4.48 L/kg
